# Like-named read-outs stand apart in the source and are kept apart here.
# Columns and labels:
# [1] = biological target: T1, HIV-1 IN-IN subunit exchange (Human immunodeficiency virus type 1 group M subtype B, UniProt P12497); test: HTRF-based IN subunit exchange assay; format: binding
# T1 construct: Preparation of recombinant full-length IN and LEDGF proteins; made in house; host or cells: E. coli BL21(DE3)
# Method: (§1) Proteins were expressed in E. coli BL21(DE3). Briefly, His-IN was purified by loading the precipitate of cell lysate onto a Ni-Sepharose column and eluting with a […] imidazole gradient (0–500 mM) in a HEPES buffer (50 mM, pH 7.5) containing NaCl (1 M), CHAPS (7.5 mM), and β-mercaptoethanol (2 mM). FLAG-IN was purified by loading the precipitate of cell lysate onto a phenyl-sepharose and ammonium sulfate gradient (0–800 mM) in a HEPES (pH 7.5, 50 mM) buffer containing NaCl (200 mM), CHAPS (7.5 mM), and β-mercaptoethanol (2 mM). Peak fractions were pooled, loaded onto a heparin column, and eluted with an increasing NaCl gradient (200 mM to 1 M) in a HEPES (pH 7.5, 50 mM) buffer containing CHAPS (7.5 mm) and β-mercaptoethanol (2 mM). Fractions containing integrase were pooled and stored in glycerol (10%) at −80°C.
# His and FLAG-tagged INs were mixed in Tris (pH 7.4, 25 mm) buffer containing NaCl (150 mm), MgCl2 (2 mM), Nonidet P-40 (0.1%), and BSA (1 mg/ml). Test compounds were then added to the mixture, and incubation was carried out for 2.5 h at room temperature.
# [2] = system: HIV-1 RTs bearing K103N, Y181C, and Y188L (RNase H); test: RNase H activity of HIV-1 RTs bearing K103N, Y181C and Y188L substitutions; format: biochemical; conditions: all cases
# Method: K103N, Y181C, and Y188L mutations were introduced into the p6HRT-prot vector using the QuikChange protocol (Agilent Technologies, Santa Clara, CA, USA). Enzymes were expressed and purified as the wt-HIV-1 RT.
# (§2) HIV RT-associated RNase H activity was measured as described ([Corona et al., 2016b]) in a 100-µl reaction volume containing 50 mM of Tris-HCl buffer, pH 7.8, 6 mM of MgCl2, 1 mM of dithiothreitol (DTT), 80 mM of KCl, 0.25 µM of hybrid RNA/DNA 5′-[…]-Fluorescin-3′ (high-performance liquid chromatography (HPLC), dry, QC: Mass Check) (available from Metabion) 5′-Dabcyl-[…]-3′ (HPLC, dry, QC: Mass Check), increasing concentrations of inhibitors, whose dilution were made in water, and different amounts of enzymes according to a linear range of the dose–response curve. The reaction mixture was incubated for 1 h at 37°C and stopped by the addition of EDTA, and products were measured with a multilabel counter plate reader Victor 3 equipped with filters for 490/528 nm.
# [3] = biological target: T2, HIV-1 IN (LEDGF-independent) (Human immunodeficiency virus type 1 group M subtype B, UniProt P12497); test: biochemical; conditions: strand-transfer activity with omission of LEDGF/p75; read-out: IC50 IN LEDGF-independent integration
# T2 construct: Preparation of recombinant full-length IN and LEDGF proteins; made in house; host or cells: E. coli BL21(DE3)
# Method: as §1
# Briefly, IN (50 nM) was preincubated with increasing concentrations of compounds for 1 h at room temperature in a reaction buffer containing HEPES (20 mM, pH 7.5), DTT (1 mM), glycerol (1%), MgCl2 (20 mM), Brij-35 (0.05%), and bovine serum albumin (BSA) (0.1 mg/ml).
# [4] = biological target: T3, HIV-1 RT-associated RNase H (Human immunodeficiency virus type 1 group M subtype B, UniProt P04585); test: HIV-1 DNA polymerase-independent RNase H activity determination; format: biochemical; conditions: wt HIV-1 RT; three independent experiments, average ± standard deviation; read-out: RNase H IC50
# T3 construct: The 1:1 ratio between the p66/p51 subunits was also verified; His tag (implied only by Ni-NTA IMAC purification); made in house; host or cells: Escherichia coli M15
# Method: Escherichia coli strain M15 containing the p6HRT-prot vector (provided by Stuart Le Grice laboratory (NCI Frederick)) was grown to an optical density at 600 nm of 0.7 and induced with 1.7 mM of isopropyl β-D-1-thiogalactopyranoside (IPTG) for 4 h. Protein purification was carried out with a BioLogic LP system (Bio-Rad, Hercules, CA, USA) using a combination of immobilized metal affinity chromatography (IMAC) and ion exchange chromatography. Cell pellets were resuspended in lysis buffer (50 mM of sodium phosphate buffer, pH 7.8, containing 0.5 mg/mL of lysozyme), incubated on ice for 20 min, and, after the addition of NaCl to a final concentration of 0.3 M, were sonicated and centrifuged at 30,000 ×g for 1 h. The supernatant was loaded onto a Ni^2+-NTA-Sepharose column pre-equilibrated with loading buffer (50 mM of sodium phosphate buffer, pH 7.8, containing 0.3 M of NaCl, 10% glycerol, and 10 mM of imidazole) and washed thoroughly with wash buffer (50 mM of sodium phosphate buffer, pH 6.0, containing 0.3 M of NaCl, 10% glycerol, and 80 mM of imidazole). RT was eluted with an imidazole gradient in the wash buffer (0–0.5 M). Fractions were collected, and protein purity was checked by sodium dodecyl sulfate–polyacrylamide gel electrophoresis (SDS-PAGE) and found to be higher than 90%. The 1:1 ratio between the p66/p51 subunits was also verified. Enzyme-containing fractions were pooled and diluted 1:1 with 50 mM of sodium phosphate buffer, pH 7.0, containing 10% glycerol, and then loaded into a Hi-trap heparin HP GE (Healthcare LifeScience) pre-equilibrated with 10 column volumes of loading buffer (50 mM of sodium phosphate buffer, pH 7.0, containing 10% glycerol, and 150 mM of NaCl). The column was then washed with loading buffer, and the RT was eluted with Elute Buffer 2 (50 mM of sodium phosphate, pH 7.0, 10% glycerol, 1 M of NaCl). Fractions were collected, and the protein was dialyzed and stored in a buffer containing 50 mM of Tris-HCl, pH 7.0, 25 mM of NaCl, 1 mM of EDTA, and 50% glycerol. Catalytic activities and protein concentrations were determined. Enzyme-containing fractions were pooled, and aliquots were stored at −80°C.
# as §2
# [5] = system: HIV-1; test: HIV-1 replication inhibition in MT4 cells; format: cell-based; conditions: three independent experiments, average ± standard deviation, read-out: HIV-1 EC50
# Method: HIV-1 replication was carried out in MT4 cells as previously reported ([Corona et al., 2016a]) using a molecular clone derived from the pNL4-3 ([Thierry et al., 2015]). A total of 120 ng of p24^gag antigen per 10^6 cells, corresponding to a multiplicity of infection (m.o.i.) of 0.3, was used for infection. […] Flow cytometry analysis was performed on a FACSCalibur flow cytometer (BD Biosciences, San Jose, CA, USA), and the results were analyzed using the […] software.
# [6] = Human immunodeficiency virus 1, MT4, viral replication in MT4 cells
SMILES,IC50 [1] [µM],"increase in IC50 values vs wt RT, RNase H function [2]",IC50 [3] [µM],IC50 [4] [µM],"EC50 [5, 6] [µM]",EC50 ([5]; viral replication in MT4 cells) [µM]
Cc1ccc(-c2csc(N/N=C3\C(=O)Nc4ccc([N+](=O)[O-])cc43)n2)cc1 [10a],11.5 ± 1.5,less than threefold,35.5 ± 1.5,8.5 ± 0.5,< 20,15.8 ± 1.8
O=C1Nc2ccc(Cl)cc2/C1=N/Nc1nc(-c2ccc(Cl)c(Cl)c2)cs1 [9b],> 100,less than threefold,> 100,8.8 ± 1.3,< 20,13.2 ± 3.7

# Source: publication PMC10328743, “5-Nitro-3-(2-(4-phenylthiazol-2-yl)hydrazineylidene)indolin-2-one derivatives inhibit HIV-1 replication by a multitarget mechanism of action” (Frontiers in Cellular and Infection Microbiology, 2023)
